# In ChEMBL document CHEMBL1201862, “PubChem BioAssay data set” (2004):
#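 Grown in 96-well plates, cells were treated for 48 hours with each compound at five concentrations. Insufficient inhibition: endpoint recorded as highest concentration tested. GI50 = concentration required for 50% inhibition of growth.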 The source made the active and inactive calls. No stated cut-off is given here; in the data, active = GI50 up to about 1.1 µM and inactive = higher.
# What was measured:
# Test in all cases: inhibition of tumour cell growth, NCI panel, 48 h
# [1] = test system: 786-0
# [2] = test system: A498
# [3] = test system: A549
# [4] = test system: ACHN
# [5] = test system: CAKI-1
# [6] = test system: CCRF-CEM
# [7] = test system: COLO 205
# [8] = test system: DLD-1
# [9] = test system: DMS-114
# [10] = test system: DMS-273
# [11] = test system: EKVX
# [12] = test system: HCC 2998
# [13] = test system: HCT-15
# [14] = test system: HL-60
# [15] = test system: HOP-18
# [16] = test system: HOP-62
# [17] = test system: HOP-92
# [18] = test system: HT-29
# [19] = test system: IGROV-1
# [20] = test system: K562
# [21] = test system: KM-20L2
# [22] = test system: KM12
# [23] = test system: LOX IMVI
# [24] = test system: LXFL 529
# [25] = test system: M14
# [26] = test system: M19-MEL
# [27] = test system: MOLT-4
# [28] = test system: Malme-3M
# [29] = test system: NCI-H226
# [30] = test system: NCI-H23
# [31] = test system: NCI-H460
# [32] = test system: NCI-H522
# [33] = test system: OVCAR-3
# [34] = test system: OVCAR-4
# [35] = test system: OVCAR-5
# [36] = test system: RPMI-8226
# [37] = test system: RXF 631
# [38] = test system: SF-268
# [39] = test system: SF-295
# [40] = test system: SF-539
# [41] = test system: SK-MEL-28
# [42] = test system: SK-MEL-2
# [43] = test system: SK-MEL-5
# [44] = test system: SK-OV-3
# [45] = test system: SNB-19
# [46] = test system: SNB-78
# [47] = test system: SW-620
# [48] = test system: TK-10
# [49] = test system: U-251
# [50] = test system: UACC-257
# [51] = test system: UACC-62
# [52] = test system: UO-31
# [53] = test system: XF498
# [54] = test system: HCT-116
# [55] = test system: OVCAR-8
# [56] = test system: SN12C
# [57] = test system: SNB-75
# [58] = test system: SR
# [59] = test system: RXF 393
structure (smiles),measurement,setting,value
C=C1CC2(CCS(=O)(=O)c3ccccc32)OC1=O (centres undefined),GI50,[1],4.32 µM (inactive)
same,GI50,[2],17.3 µM (inactive)
same,GI50,[3],17.9 µM (inactive)
same,GI50,[4],11.5 µM (inactive)
same,GI50,[5],1.48 µM (inactive)
same,GI50,[6],2.24 µM (inactive)
same,GI50,[7],2.99 µM (inactive)
same,GI50,[8],12.5 µM (inactive)
same,GI50,[9],3.94 µM (inactive)
same,GI50,[10],16.5 µM (inactive)
same,GI50,[11],18 µM (inactive)
same,GI50,[12],21.9 µM (inactive)
same,GI50,[13],11.9 µM
same,GI50,[14],2.96 µM (inactive)
same,GI50,[15],3.63 µM (inactive)
same,GI50,[16],18.3 µM (inactive)
same,GI50,[17],3.72 µM (inactive)
same,GI50,[18],12.2 µM (inactive)
same,GI50,[19],16.6 µM (inactive)
same,GI50,[20],4.04 µM (inactive)
same,GI50,[21],14.3 µM (inactive)
same,GI50,[22],16 µM (inactive)
same,GI50,[23],17.3 µM (inactive)
same,GI50,[24],4.4 µM (inactive)
same,GI50,[25],6.62 µM (inactive)
same,GI50,[26],17.5 µM (inactive)
same,GI50,[27],3.49 µM (inactive)
same,GI50,[28],12.4 µM (inactive)
same,GI50,[29],10.9 µM (inactive)
same,GI50,[30],12 µM (inactive)
same,GI50,[31],18.5 µM (inactive)
same,GI50,[32],2.82 µM (inactive)
same,GI50,[33],7.52 µM (inactive)
same,GI50,[34],13.7 µM (inactive)
same,GI50,[35],14.3 µM (inactive)
same,GI50,[36],2.74 µM (inactive)
same,GI50,[37],20.7 µM (inactive)
same,GI50,[38],17.2 µM (inactive)
same,GI50,[39],21.1 µM (inactive)
same,GI50,[40],5.6 µM (inactive)
same,GI50,[41],13.3 µM (inactive)
same,GI50,[42],10.7 µM (inactive)
same,GI50,[43],12.4 µM (inactive)
same,GI50,[44],17.6 µM (inactive)
same,GI50,[45],10.2 µM (inactive)
same,GI50,[46],9.51 µM (inactive)
same,GI50,[47],3.01 µM (inactive)
same,GI50,[48],12.9 µM (inactive)
same,GI50,[49],13.2 µM (inactive)
same,GI50,[50],14.5 µM (inactive)
same,GI50,[51],15.9 µM (inactive)
same,GI50,[52],13.2 µM (inactive)
same,GI50,[53],13.2 µM (inactive)
CC1=C2CCCC2C/C(=N/Nc2ccc([N+](=O)[O-])cc2[N+](=O)[O-])CC1 (centres undefined),GI50,[1],> 100 µM (inactive)
same,GI50,[2],> 100 µM (inactive)
same,GI50,[3],> 100 µM (inactive)
same,GI50,[4],> 100 µM (inactive)
same,GI50,[5],> 100 µM (inactive)
same,GI50,[7],> 100 µM (inactive)
same,GI50,[9],> 100 µM (inactive)
same,GI50,[10],> 100 µM (inactive)
same,GI50,[12],> 100 µM (inactive)
same,GI50,[54],> 100 µM (inactive)
same,GI50,[13],> 100 µM
same,GI50,[14],11.1 µM (inactive)
same,GI50,[15],> 100 µM (inactive)
same,GI50,[16],> 100 µM (inactive)
same,GI50,[17],> 100 µM (inactive)
same,GI50,[18],> 100 µM (inactive)
same,GI50,[19],> 100 µM (inactive)
same,GI50,[20],> 100 µM (inactive)
same,GI50,[21],> 100 µM (inactive)
same,GI50,[22],> 100 µM (inactive)
same,GI50,[23],> 100 µM (inactive)
same,GI50,[24],> 100 µM (inactive)
same,GI50,[25],> 100 µM (inactive)
same,GI50,[26],> 100 µM (inactive)
same,GI50,[27],> 100 µM (inactive)
same,GI50,[28],> 100 µM (inactive)
same,GI50,[29],> 100 µM (inactive)
same,GI50,[30],> 100 µM (inactive)
same,GI50,[31],> 100 µM (inactive)
same,GI50,[32],> 100 µM (inactive)
same,GI50,[33],> 100 µM (inactive)
same,GI50,[34],> 100 µM (inactive)
same,GI50,[35],> 100 µM (inactive)
same,GI50,[55],> 100 µM (inactive)
same,GI50,[36],> 100 µM (inactive)
same,GI50,[37],> 100 µM (inactive)
same,GI50,[38],> 100 µM (inactive)
same,GI50,[39],> 100 µM (inactive)
same,GI50,[40],> 100 µM (inactive)
same,GI50,[41],> 100 µM (inactive)
same,GI50,[42],> 100 µM (inactive)
same,GI50,[43],> 100 µM (inactive)
same,GI50,[44],> 100 µM (inactive)
same,GI50,[56],> 100 µM (inactive)
same,GI50,[45],> 100 µM (inactive)
same,GI50,[57],69.7 µM (inactive)
same,GI50,[58],> 100 µM (inactive)
same,GI50,[47],> 100 µM (inactive)
same,GI50,[48],> 100 µM (inactive)
same,GI50,[49],> 100 µM (inactive)
same,GI50,[50],> 100 µM (inactive)
same,GI50,[51],> 100 µM (inactive)
same,GI50,[52],> 100 µM (inactive)
same,GI50,[53],> 100 µM (inactive)
CCN(CC)CCCN(c1cc(OC)cc2nccnc12)S(=O)(=O)c1ccc(C)cc1,GI50,[1],> 100 µM (inactive)
same,GI50,[2],> 100 µM (inactive)
same,GI50,[3],> 100 µM (inactive)
same,GI50,[4],> 100 µM (inactive)
same,GI50,[5],> 100 µM (inactive)
same,GI50,[6],99.1 µM (inactive)
same,GI50,[7],> 100 µM (inactive)
same,GI50,[8],> 100 µM (inactive)
same,GI50,[9],> 100 µM (inactive)
same,GI50,[10],> 100 µM (inactive)
same,GI50,[11],> 100 µM (inactive)
same,GI50,[12],> 100 µM (inactive)
same,GI50,[13],> 100 µM
same,GI50,[14],> 100 µM (inactive)
same,GI50,[15],> 100 µM (inactive)
same,GI50,[16],> 100 µM (inactive)
same,GI50,[17],> 100 µM (inactive)
same,GI50,[18],> 100 µM (inactive)
same,GI50,[19],> 100 µM (inactive)
same,GI50,[20],> 100 µM (inactive)
same,GI50,[21],> 100 µM (inactive)
same,GI50,[22],> 100 µM (inactive)
same,GI50,[23],> 100 µM (inactive)
same,GI50,[24],> 100 µM (inactive)
same,GI50,[25],> 100 µM (inactive)
same,GI50,[26],> 100 µM (inactive)
same,GI50,[27],74.6 µM (inactive)
same,GI50,[28],> 100 µM (inactive)
same,GI50,[29],> 100 µM (inactive)
same,GI50,[30],> 100 µM (inactive)
same,GI50,[31],> 100 µM (inactive)
same,GI50,[32],> 100 µM (inactive)
same,GI50,[33],> 100 µM (inactive)
same,GI50,[34],> 100 µM (inactive)
same,GI50,[35],> 100 µM (inactive)
same,GI50,[55],> 100 µM (inactive)
same,GI50,[36],> 100 µM (inactive)
same,GI50,[59],41.1 µM (inactive)
same,GI50,[37],> 100 µM (inactive)
same,GI50,[38],> 100 µM (inactive)
same,GI50,[39],> 100 µM (inactive)
same,GI50,[40],> 100 µM (inactive)
same,GI50,[41],> 100 µM (inactive)
same,GI50,[42],> 100 µM (inactive)
same,GI50,[43],> 100 µM (inactive)
same,GI50,[44],> 100 µM (inactive)
same,GI50,[56],> 100 µM (inactive)
same,GI50,[45],> 100 µM (inactive)
same,GI50,[57],37.2 µM (inactive)
same,GI50,[58],> 100 µM (inactive)
same,GI50,[47],> 100 µM (inactive)
same,GI50,[48],> 100 µM (inactive)
same,GI50,[49],> 100 µM (inactive)
same,GI50,[50],> 100 µM (inactive)
same,GI50,[51],> 100 µM (inactive)
same,GI50,[52],> 100 µM (inactive)
same,GI50,[53],> 100 µM (inactive)
